Assay results taken from ChEMBL document CHEMBL5726238, “Phenyl and pyridinyl substituted piperidines and piperazines as inhibitors of IDH1 mutants and their use in treating cancer” (2017).

Target: Isocitrate dehydrogenase [NADP] cytoplasmic (Homo sapiens, UniProt O75874, R132H)
Assay: Inhibition Assay: Assays were conducted in a volume of 76 μl assay buffer (150 mM NaCl, 10 mM MgCl2, 20 mM Tris pH 7.5, 0.03% bovine serum albumin) as follows in a standard 384-well plate: To 25 ul of substrate mix (8 uM NADPH, 2 mM aKG), 1 μl of test compound was added in DMSO. […] The reaction was incubated for 50 minutes at room temperature, then 25 μl of detection mix (30 μM resazurin, […]) was added and the mixture further incubated for 5 minutes at room temperature.

Isocitrate dehydrogenase [NADP] cytoplasmic, sequence (O75874 2-414 R132H limits assumed): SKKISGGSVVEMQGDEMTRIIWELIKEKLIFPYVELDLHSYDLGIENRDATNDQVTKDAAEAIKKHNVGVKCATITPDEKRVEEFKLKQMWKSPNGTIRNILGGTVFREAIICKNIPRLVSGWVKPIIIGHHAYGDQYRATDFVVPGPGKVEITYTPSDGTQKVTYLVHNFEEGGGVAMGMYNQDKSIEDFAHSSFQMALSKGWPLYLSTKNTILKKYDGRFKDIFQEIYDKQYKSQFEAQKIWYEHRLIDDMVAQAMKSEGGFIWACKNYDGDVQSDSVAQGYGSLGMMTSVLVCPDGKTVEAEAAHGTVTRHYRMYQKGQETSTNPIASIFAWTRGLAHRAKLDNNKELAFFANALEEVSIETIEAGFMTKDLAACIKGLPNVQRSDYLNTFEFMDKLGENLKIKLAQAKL

SMILES	IC50
C=CC(=O)N1CCc2c(C3CC3)nc(N3CCN(C(=O)C4CC4)[C@H](C4CC4)C3)c(C#N)c2C1	< 0.5 µM
CC(C)[C@@H]1CN(c2nc(C3CC3)c3c(c2C#N)CC(C)(C)OC3)CCN1C(=O)CCC(=O)OCCO	< 0.5 µM
COCCC(=O)N1CCN(c2nc(C3CC3)c3c(c2C#N)CN(S(C)(=O)=O)CC3)C[C@H]1C1CC1	< 0.5 µM
C#CC(=O)N1CCc2c(C#N)c(N3CCN(C(=O)CCOC)[C@H](C4CC4)C3)nc(C3CC3)c2C1	< 0.5 µM
CC(C)c1nc(N2CCN(C(=O)Cc3cccs3)CC2)c(C#N)c2c1COC(C)(C)C2	1 to 10 µM
